This is an account of results in ChEMBL document CHEMBL4017496 (J Med Chem, 2017).

Each structure is given as a SMILES string. The source made the active and inactive calls. The calls are words filed in the database; no cut-off is given here.

One may read the inhibition as how much of the control response was suppressed.

Test [1] has as its target T1, Peroxisome proliferator-activated receptor delta (Homo sapiens) (UniProt Q03181).
T1 sequence (whole entry): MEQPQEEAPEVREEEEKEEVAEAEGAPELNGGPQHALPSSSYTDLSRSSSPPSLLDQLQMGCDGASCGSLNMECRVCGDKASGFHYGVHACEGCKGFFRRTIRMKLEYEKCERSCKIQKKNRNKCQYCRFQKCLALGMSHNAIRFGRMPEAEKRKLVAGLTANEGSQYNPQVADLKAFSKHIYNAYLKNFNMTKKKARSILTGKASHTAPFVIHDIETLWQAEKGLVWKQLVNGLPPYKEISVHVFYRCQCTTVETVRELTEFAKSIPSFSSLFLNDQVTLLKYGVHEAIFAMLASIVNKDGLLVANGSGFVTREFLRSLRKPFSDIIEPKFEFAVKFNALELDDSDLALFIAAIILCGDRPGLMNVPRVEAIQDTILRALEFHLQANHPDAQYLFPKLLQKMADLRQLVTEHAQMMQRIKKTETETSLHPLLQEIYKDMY
As to the kind of experiment: Displacement of Fluormone-Pan-PPAR Green from human GST-tagged PPARdelta LBD by TR-FRET assay.

A short description of test [2]: Induction of adipogenesis in human bone marrow-derived mesenchymal stem cells assessed as adiponectin level at 4 uM measured on day 7 after 48 hrs by ELISA. It is filed as functional, Mesenchymal stem cell.
For test [3], the system named is Mus musculus. As to the kind of experiment: Antidiabetic activity in STZ-induced diabetic C57BL/6J mouse assessed as insulin sensitivity by measuring reduction of serum lactate level at 20 mg/kg,po for 5 days. It is filed as functional, organism-based.
Test [4] concerns the target Peroxisome proliferator-activated receptor delta (Homo sapiens) (UniProt Q03181). As to the kind of experiment: Antagonist activity at human GST-tagged PPARdelta LBD assessed as reduction in GW501516-induced fluorescein-C33 coactivator recruitment at 1 uM by TR-FRET assay relative to control.
Test [5] addresses T2, Peroxisome proliferator-activated receptor alpha (Homo sapiens) (UniProt Q07869).
T2 sequence (whole entry): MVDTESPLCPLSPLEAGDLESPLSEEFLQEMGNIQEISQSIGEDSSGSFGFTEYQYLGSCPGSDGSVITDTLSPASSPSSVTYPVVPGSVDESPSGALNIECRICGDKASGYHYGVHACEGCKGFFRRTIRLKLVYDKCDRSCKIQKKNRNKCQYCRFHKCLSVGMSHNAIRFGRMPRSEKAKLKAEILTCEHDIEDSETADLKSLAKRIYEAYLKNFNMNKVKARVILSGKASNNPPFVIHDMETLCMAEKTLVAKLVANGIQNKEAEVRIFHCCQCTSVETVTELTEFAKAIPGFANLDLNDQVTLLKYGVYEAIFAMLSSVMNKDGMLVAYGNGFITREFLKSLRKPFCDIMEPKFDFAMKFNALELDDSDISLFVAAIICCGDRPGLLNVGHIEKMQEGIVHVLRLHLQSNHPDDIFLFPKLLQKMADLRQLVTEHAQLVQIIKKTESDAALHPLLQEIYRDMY
As to the kind of experiment: Displacement of Fluormone-Pan-PPAR Green from human GST-tagged PPARalpha LBD at 20 uM by TR-FRET assay relative to control.

The target in test [6] is T2, Peroxisome proliferator-activated receptor alpha (Homo sapiens). The experiment in a line: Displacement of Fluormone-Pan-PPAR Green from human GST-tagged PPARalpha LBD at 4 uM by TR-FRET assay relative to control. In general terms: In TR-FRET formats the signal depends on donor and acceptor labels being close together.
The subject of test [7] is Mus musculus. The experiment in a line: Antidiabetic activity in STZ-induced diabetic C57BL/6J mouse assessed as insulin sensitivity by measuring reduction of serum triglyceride level at 20 mg/kg,po for 5 days. The test is classed as functional, organism-based.
Test [8] concerns the target T1, Peroxisome proliferator-activated receptor delta (Homo sapiens). The experiment in a line: Displacement of Fluormone-Pan-PPAR Green from human GST-tagged PPARdelta LBD at 4 uM by TR-FRET assay relative to control.
In test [9] the test system is Mus musculus. The experiment in a line: Antidiabetic activity in STZ-induced diabetic C57BL/6J mouse assessed as insulin sensitivity by measuring reduction of serum glucose levels at 20 mg/kg,po for 5 days measured at 1 and 4 hrs post last dose. The test is classed as functional, organism-based.
Test [10] has as its target T3, Cyclin-dependent kinase 5/CDK5 activator 1 (Homo sapiens) (UniProt Q00535+Q15078). As to the kind of experiment: Inhibition of human CDK5/p35 up to 20 uM using histone H1 as substrate after 40 mins in presence of [gamma32P]ATP by scintillation counting. The test is classed as protein-complex assay.
The target in test [11] is T3, Cyclin-dependent kinase 5/CDK5 activator 1 (Homo sapiens). The experiment in a line: Inhibition of human CDK5/p25 up to 20 uM using histone H1 as substrate after 40 mins in presence of [gamma32P]ATP by scintillation counting. It is filed as protein-complex assay.
Test [12] in a line: Induction of adipogenesis in human bone marrow-derived mesenchymal stem cells assessed as adiponectin level at 20 uM measured on day 7 after 48 hrs by ELISA. It is filed as functional, Mesenchymal stem cell.
Test [13] has as its target T4, Oxysterols receptor LXR-beta (Homo sapiens) (UniProt P55055).
T4 sequence (whole entry): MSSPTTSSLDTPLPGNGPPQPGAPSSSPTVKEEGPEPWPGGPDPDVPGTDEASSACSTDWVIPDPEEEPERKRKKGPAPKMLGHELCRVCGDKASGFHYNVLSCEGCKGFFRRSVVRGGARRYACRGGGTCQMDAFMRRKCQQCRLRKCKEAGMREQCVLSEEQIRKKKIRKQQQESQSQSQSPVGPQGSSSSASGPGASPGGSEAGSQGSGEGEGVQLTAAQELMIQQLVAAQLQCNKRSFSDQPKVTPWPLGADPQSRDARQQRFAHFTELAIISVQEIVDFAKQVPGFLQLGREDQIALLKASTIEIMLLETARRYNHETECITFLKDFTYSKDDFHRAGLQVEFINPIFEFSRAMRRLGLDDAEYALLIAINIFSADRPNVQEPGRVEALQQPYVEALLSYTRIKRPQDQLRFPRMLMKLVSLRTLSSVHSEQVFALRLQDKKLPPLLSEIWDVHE
The experiment in a line: Binding affinity to human LXRbeta at 4 uM by TR-FRET assay.

The target of test [14] is T5, Oxysterols receptor LXR-alpha (Homo sapiens) (UniProt Q13133).
T5 sequence (whole entry): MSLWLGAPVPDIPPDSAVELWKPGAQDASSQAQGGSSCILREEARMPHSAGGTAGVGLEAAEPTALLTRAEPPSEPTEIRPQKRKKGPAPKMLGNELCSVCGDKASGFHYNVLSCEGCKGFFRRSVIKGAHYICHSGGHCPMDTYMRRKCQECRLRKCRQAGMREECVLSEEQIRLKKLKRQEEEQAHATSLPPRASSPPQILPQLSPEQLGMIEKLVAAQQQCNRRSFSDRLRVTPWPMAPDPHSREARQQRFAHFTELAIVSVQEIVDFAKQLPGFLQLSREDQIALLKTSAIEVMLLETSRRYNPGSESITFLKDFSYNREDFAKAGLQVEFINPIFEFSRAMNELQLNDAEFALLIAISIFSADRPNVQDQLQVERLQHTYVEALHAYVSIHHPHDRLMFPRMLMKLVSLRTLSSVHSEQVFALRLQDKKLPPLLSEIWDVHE
The experiment in a line: Binding affinity to human LXRalpha at 4 uM by TR-FRET assay.

The target of test [15] is T1, Peroxisome proliferator-activated receptor delta (Homo sapiens). The experiment in a line: Transactivation of human GST-tagged PPARdelta LBD assessed as fluorescein-C33 coactivator recruitment at 10 uM by TR-FRET assay.

T3 sequence (Q00535 whole entry): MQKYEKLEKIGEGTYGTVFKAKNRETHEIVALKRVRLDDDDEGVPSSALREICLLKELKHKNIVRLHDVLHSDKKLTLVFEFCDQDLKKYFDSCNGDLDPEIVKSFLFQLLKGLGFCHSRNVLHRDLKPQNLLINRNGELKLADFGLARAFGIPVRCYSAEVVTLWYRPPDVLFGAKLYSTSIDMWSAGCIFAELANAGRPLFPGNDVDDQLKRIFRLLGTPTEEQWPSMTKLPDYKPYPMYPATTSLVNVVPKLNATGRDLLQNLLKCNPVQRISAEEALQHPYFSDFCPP
T3 sequence (Q15078 99-307 partner limits assumed): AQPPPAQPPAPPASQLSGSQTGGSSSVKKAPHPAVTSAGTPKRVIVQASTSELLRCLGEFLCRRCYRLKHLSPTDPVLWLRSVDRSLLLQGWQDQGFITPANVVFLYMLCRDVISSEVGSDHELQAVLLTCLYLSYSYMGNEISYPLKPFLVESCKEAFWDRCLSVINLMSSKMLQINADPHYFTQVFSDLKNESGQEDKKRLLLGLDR

With `CNC(=O)[C@H]1O[C@@H](n2cnc3c(NCc4cccc(I)c4)ncnc32)[C@H](O)[C@@H]1O` [IB-MECA], the inhibition entry is “Dose-dependent effect” in test [1], 14% in test [4], 16% in test [5] and 26% in [8]. For the same molecule, the Activity in test [2] worked out at 117 pg/mL; in test [12], 216 pg/mL. In addition, the result with Mus musculus [3], with Mus musculus [7] and in the test on Mus musculus [9] was Active. For the same molecule, the inhibition result in test [6], in test [10] and in test [11] was “inactive” in each case. Besides, the result in test [13], in test [14] and in test [15] was inactive.
